One assay has as its system PTP1B. Also noted: method as in PMID 15258570. Conditions: allosteric inhibitor of PTP1B; cited from earlier work.
Assay [1] addresses T1, Protein tyrosine phosphatase 1B (PTP1B, human recombinant) (Homo sapiens, UniProt P18031).
T1 construct: purchased Biomol International LP (Plymouth Meeting, PA, USA)
T1 sequence (P18031 1-435): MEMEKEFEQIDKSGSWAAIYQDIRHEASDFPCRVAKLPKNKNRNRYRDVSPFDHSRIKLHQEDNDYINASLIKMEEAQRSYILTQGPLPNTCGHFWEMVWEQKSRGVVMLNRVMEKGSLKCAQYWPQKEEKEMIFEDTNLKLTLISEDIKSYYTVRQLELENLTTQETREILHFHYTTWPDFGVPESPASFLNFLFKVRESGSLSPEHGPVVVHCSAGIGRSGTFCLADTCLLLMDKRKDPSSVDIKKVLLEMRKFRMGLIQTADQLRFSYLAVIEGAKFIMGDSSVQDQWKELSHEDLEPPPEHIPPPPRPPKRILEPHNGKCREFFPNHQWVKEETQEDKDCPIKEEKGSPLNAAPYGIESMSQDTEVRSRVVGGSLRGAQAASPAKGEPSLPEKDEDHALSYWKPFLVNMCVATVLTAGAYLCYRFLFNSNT
Kind of assay: PTP1B inhibitory assay (inhibition of pNPP hydrolysis catalyzed by PTP1B). In kind it is biochemical. An excerpt:
(§1) Ethylenediaminetetraacetic acid, p-nitrophenyl phosphate (pNPP), and dimethylsulfoxide were purchased from Sigma-Aldrich Co. (St. Louis, MO, USA). Protein tyrosine phosphatase 1B (PTP1B, human recombinant) and dithiothreitol (DTT) were purchased from Biomol® International LP (Plymouth Meeting, PA, USA) and Bio-Rad Laboratories (Hercules, CA, USA), respectively. All chemicals and solvents used in the isolation and enzyme assays were of reagent grade and were purchased from commercial sources. TLC were performed on a precoated Merck Kiesel gel 60 F254 plates (20 × 20 cm, 0.25 mm) and RP-18 F254S plates (5 × 10 cm) (Merck, Darmstadt, Germany).
Inhibition of pNPP hydrolysis catalyzed by PTP1B was carried out by the method as described but with slight modification.

Assay [2] has as its target T1, Protein tyrosine phosphatase 1B (PTP1B, human recombinant). Briefly: Enzyme kinetic analysis (Lineweaver-Burk and Dixon plots). The format is biochemical. Conditions: for Ki: determined by Dixon plot; for Inhibition Type: determined by Lineweaver-Burk plot.
From the text: Here, we employed Lineweaver-Burk and Dixon plots to determine the inhibition type and inhibition constant (Ki value) for each compound (Figure 2, Table 1).
as §1
The kinetic parameters were determined using Lineweaver-Burk double-reciprocal plots and the Dixon plot method at increasing substrate and compound concentrations. All measurements were measured in triplicate, and Sigma Plot 12.0 (SPCC Inc., Chicago, IL, USA) was used to calculate the experimental parameters.

“Also recorded” adds a separate entry of the source.

As for `CCc1oc2cc(S(=O)(=O)Nc3ccc(S(N)(=O)=O)cc3)ccc2c1C(=O)c1cc(Br)c(O)c(Br)c1` [Compound A, 3-(3,5-dibromo-4-hydroxy-benzoyl)-2-ethyl-benzofuran-6-sulfonic acid (4-sulfamoyl-phenyl)-amide], the 50% inhibitory concentration (IC50) (in general, the midpoint of a concentration-inhibition curve) in the assay with PTP1B is […].
On to `CC(C)=CCC/C(C)=C/CC/C(C)=C\Cc1c(O)cc(O)c(CC=C(C)C)c1-c1cc2ccc(O)cc2o1` [MB, morusalfuran B], for which the IC50 in assay [1] came out at 12 ± 0.75 µM. Besides, in assay [2], the Ki (commonly the dissociation constant of the complex between target and ligand, obtained from inhibition or displacement) was determined as 2.84 µM; the “Inhibition Type” value was “mixed-type inhibition; also recorded: mixed type inhibitor”.
In the case of `CC(C)=CCCC1(C)C=Cc2c(ccc3cc(-c4cc(O)cc(O)c4CC=C(C)C)oc23)O1` (centres unmarked) [MD2, mulberrofuran D2], the concentration for half-maximal inhibition (IC50) in assay [1] amounted to 3.11 ± 0.1 µM. Also, in assay [1] (MD2 vs compound A, PTP1B inhibition), the “times more potent than compound A” value was 7 times. In assay [2], the Ki was 2.63 µM and the “Inhibition Type” value is “non-competitive inhibition; also recorded: non-competitive inhibitor; also recorded: Noncompetitive”.
As for `CC(C)=CCC/C(C)=C/Cc1c(O)ccc2cc(-c3cc(O)cc(O)c3CC=C(C)C)oc12` [MD, mulberrofuran D], the IC50 in assay [1] was found to be 11.6 ± 0.19 µM. Also, in assay [2], the Ki was found to be 4.79 µM and the “Inhibition Type” value is “mixed-type inhibition; also recorded: mixed type inhibitor”.
Consider `C[C@@]12C=C(c3c(O)cc(-c4cc5ccc(O)cc5o4)cc3O)C[C@@H](C1)c1ccc(O)cc1O2` [MH, mulberrofuran H], for which the IC50 in assay [1] stood at 53.5 ± 12.5 µM.
In the case of `COc1cc(O)cc(-c2cc3ccc(O)c(C/C=C(\C)CCC=C(C)C)c3o2)c1CC=C(C)C` [SA, sanggenofuran A], the half-inhibitory concentration (IC50) in assay [1] turned out to be 31.9 ± 2.98 µM. Further, the “reduction of activity (SA vs. MD)” value in assay [1] (replacement of C3′-OH with -OCH3, SA vs. MD) is above 3 times.

The record behind these values is PMC6721227, “Insight into the PTP1B Inhibitory Activity of Arylbenzofurans: An In Vitro and In Silico Study” (Molecules, 2019).
